Five compounds from patent US20230134714A1, “COMPOSITIONS COMPRISING BACTERIAL STRAINS” (4D PHARMA RESEARCH LIMITED, priority 2018, published 2023) can be followed below.

Test [1] relates to graft versus host disease (GVHD) induced in Balb/C mice. Description: GVHD model (TBI plus allogeneic cell transfer). The class given is in vivo. The text has this:
All animals were weighed and randomized by weight into treatment groups prior to study start. Prior to GVHD induction on Days −1 and 0, all animals were pre-treated (PO) with PBS (Groups 1-4), NCIMB 43171 (Group 5), or Butyrate salt control (Group 6) daily starting on Day −14. Butyrate was used as a positive control as butyrate deficit has been identified in the gut of GVHD patients.
GVHD was induced in mice using a single acute dose of 8 Gy of total body irradiation (TBI) on Day −1. On Day 0, these recipient mice were given an intravenous injection of a combination of T cell depleted bone marrow cells and splenic cells from donor C57Bl/6 mice in PBS. Bone marrow cells were isolated using standard flushing practices, and were T cell depleted using the cell surface T cell antigen CD3, with a CD3-biotin kit (Miltenyi Biotec catalog 130-094-973). Splenocytes were isolated using Miltenyi GentleMACS Dissociators. Animals in Group 1 served as naïve controls and received neither TBI nor cell transfer. […] Animals in Group 3 served as syngeneic adoptive transfer controls; these animals received 8 Gy of TBI on Day −1, and an intravenous injection of a combination of T cell depleted bone marrow cells and splenic cells from donor Balb/C mice in sterile PBS.
Daily test article dosing continued for the duration of the study (Days −14 to 30). Animal survival was recorded daily, as an indication of GVHD severity. Animals were also weighed, observed, and given a clinical GVHD score daily for the duration of the study following GVHD induction. The GVHD score was assessed by a standard scoring system based on five criteria (Table 21): percentage of weight change, posture (hunching), activity, fur texture, and skin integrity (maximum score=10).
On Day 29, all surviving animals underwent endoscopy to monitor colonic inflammation.
On Day 30, blood was collected by RO bleed; blood (approximately 150-300 μL) was collected into two tubes—approximately two third of the blood was collected into K2EDTA tubes, and the remaining one third was collected into lithium-heparin tubes. Both samples were centrifuged and processed for plasma, and plasma tubes were clearly labeled to indicate the anti-coagulant used. For the K2EDTA sample, plasma was aliquoted as follows: 25 μL (for use in downstream citrulline assay), and remainder. All plasma was frozen at −80° C. All K2EDTA samples were assessed for citrulline by ELISA upon study completion

The test system of test [2] is HDAC. Description: Global HDAC activity analysis in HT-29 cells. To be noted: for inhibition of total HDAC activity: whole HT-29 cells or cell lysate not specified. The class given is cell-based. As for the experimental part: Whole cells and cell free supernatants of stationary phase 43042 cultures were isolated by centrifugation and filtering in a 0.22 uM filter. HT-29 cells were used 3 days' post confluence and stepped down in 1 mL DTS 24 hours prior to commencement of the experiment. The HT-29 cells were challenged with 10% cell free supernatant diluted in DTS and this was left to incubate for 48 hours. […] proteins were then extracted using the Sigma Aldrich […] extraction kit and samples were snap frozen prior to HDAC activity measurement. HDAC activity kit was assessed fluorometrically using the Sigma Aldrich (UK) kit.
(§1) To investigate which metabolites were responsible for the strain-induced HDAC inhibition, different concentrations of hexanoic acid, valeric acid and sodium butyrate were measured for their HDAC inhibition on whole HT-29 cells and on HT-29 cell lysate.

The test system of test [3] is HDAC. Description: HDAC inhibition on HT-29 cell lysate. The class given is biochemical. The settings on record: different concentrations. How it is done:
as §1

Where [4] appears, read: compared with Group 4 (PBS-TBI+allogeneic transfer).

Where a name gives a salt, the structure may show the parent alone.

As to `CCCC(=O)O` [Butyrate salt control], the “mean body weight over the course of the study” value in test [1] (compared to Group 1 (PBS-naive)) is on record as “significantly decreased”; in test [1] (compared to Group 3 (PBS-TBI+syngeneic transfer)) it was “significantly decreased”; in test [1] (setting [4]), “No significant differences”. Besides, in test [1] (endoscopy Day 29, compared to naive mice (Group 1)), the “mean colitis severity scores” value is recorded as “increased”.
For `CCCCC(=O)O` [Valeric acid, valeric acid], in the test on HDAC [2], the “inhibition of total HDAC activity” value is “inhibited total HDAC activity”.
The same measure, in the same setting: to `CCCCCC(=O)O` [hexanoic acid] belongs “did show significant inhibitory activity”.
For `CCCC(=O)[O-].[Na+]` [sodium butyrate, Sodium butyrate], the “inhibition of HDAC activity on whole HT-29 cells” value in the test on HDAC [2] (different concentrations, whole cells) is recorded as “significant (P<0.05) inhibition”. Also, the “inhibition of HDAC activity on HT-29 cell lysate” value in the test on HDAC [3] is reported as “significant (P<0.05) inhibition”.
`C=CC[C@@H]1/C=C(\C)C[C@H](C)C[C@H](OC)[C@H]2O[C@@](O)(C(=O)C(=O)N3CCCC[C@H]3C(=O)O[C@H](/C(C)=C/[C@@H]3CC[C@@H](O)[C@H](OC)C3)[C@H](C)[C@@H](O)CC1=O)[C@H](C)C[C@@H]2OC` [tacrolimus]: the “mean GVHD scores” value in test [1] (compared to Group 3) is recorded as “trend was also observed”. Further, in test [1] (setting [4]), the “mean body weight over the course of the study” value was “same trend was observed”.
